# Experimental data: article PMC11753388, “Bispecific Thio‐Linked Disaccharides as Inhibitors of Pseudomonas Aeruginosa Lectins LecA (PA‐IL) and LecB (PA‐IIL): Dual‐Targeting Strategy” (Chemistry (Weinheim an Der Bergstrasse, Germany), 2024)
# Where two headings read alike, the source gives them in different places.
# How the values were obtained:
# LecA (PA-IL) [1] = target: T1, LecA (PA-IL) (Pseudomonas aeruginosa, UniProt Q05097); experiment: isothermal titration calorimetry; assay type: binding
# T1 construct: soluble calcium-dependent homotetramer, one site per monomer
# T1 sequence (Q05097 2-122): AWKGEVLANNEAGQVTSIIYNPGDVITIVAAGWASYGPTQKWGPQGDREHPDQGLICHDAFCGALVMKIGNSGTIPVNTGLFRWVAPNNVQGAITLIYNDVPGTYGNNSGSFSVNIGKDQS
# Excerpt: isothermal titration calorimetry on LecA (PA-IL)
# LecB (PA-IIL) [2] = target: T2, LecB (PA-IIL) (Pseudomonas aeruginosa, UniProt Q9HYN5); experiment: isothermal titration calorimetry; assay type: binding
# T2 construct: soluble calcium-dependent homotetramer, one site per monomer
# T2 sequence (Q9HYN5 entry or part of it): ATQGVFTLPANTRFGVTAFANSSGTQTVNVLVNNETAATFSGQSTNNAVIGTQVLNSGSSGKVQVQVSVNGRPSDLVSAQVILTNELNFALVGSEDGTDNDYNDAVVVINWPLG
# LecB (PA-IIL) [3] = target: T2, LecB (PA-IIL); experiment: yeast agglutination inhibition, microscopy; assay type: biochemical; settings: LecB 625 μg/ml, yeast cells; complete inhibition
# Excerpt: yeast agglutination inhibition, microscopy on LecB (PA-IIL)
# LecA (PA-IL) [4] = target: T1, LecA (PA-IL); experiment: hemagglutination inhibition, microscopy; assay type: biochemical; settings: LecA 125 μg/ml, group O red blood cells; complete inhibition
# Excerpt: hemagglutination inhibition, microscopy on LecA (PA-IL)
structure (smiles),measurement,setting,value
OC[C@H]1OC(O)[C@H](O)[C@@H](O)[C@H]1O (stereo partly drawn) [D-Galactose],Kd,"LecA (PA-IL) [1]; read-out: LecA / KD, 300 μM lectin, 2 mM ligand, non-sigmoid curve, n apparent",175 µM
"C[C@@H]1O[C@@H](S[C@@H]2O[C@H](CO)[C@H](O)[C@H](O)[C@H]2O)[C@@H](O)[C@H](O)[C@@H]1O [compound 14, Thio‐L‐Fuc‐α(1,1)β‐D‐Gal]",Kd,LecB (PA-IIL) [2],0.35 µM
same,Kd,LecA (PA-IL) [1],115 µM
"C[C@@H]1O[C@@H](S[C@@H]2O[C@@H](C)[C@@H](O)[C@@H](O)[C@@H]2O)[C@@H](O)[C@H](O)[C@@H]1O [compound 25, Thio‐L‐Fuc‐α(1,1)α‐L‐Fuc]",LecB / MIC,LecB (PA-IIL) [3],6.10 µM
"C[C@@H]1O[C@@H](S[C@H]2O[C@H](CO)[C@@H](O)[C@H](O)[C@H]2O)[C@@H](O)[C@H](O)[C@@H]1O [compound 26, Thio‐L‐Fuc‐α(1,1)α‐D‐Glc]",LecB / MIC,LecB (PA-IIL) [3],6.10 µM
"C[C@@H]1O[C@@H](S[C@H]2O[C@H](CO)[C@H](O)[C@H](O)[C@H]2O)[C@@H](O)[C@H](O)[C@@H]1O [compound 27, Thio‐L‐Fuc‐α(1,1)α‐D‐Gal]",Kd,LecB (PA-IIL) [2],0.19 µM
same,Kd,LecA (PA-IL) [1],55.6 µM
"C[C@H]1O[C@H](S[C@H]2O[C@H](CO)[C@H](O)[C@H](O)[C@H]2O)[C@H](O)[C@@H](O)[C@H]1O [compound 28, Thio‐D‐Fuc‐α(1,1)α‐D‐Gal]",LecA / MIC,LecA (PA-IL) [4],390 µM
"OC[C@H]1O[C@H](S[C@H]2O[C@H](CO)[C@H](O)[C@H](O)[C@H]2O)[C@H](O)[C@@H](O)[C@H]1O [compound 29, Thio‐D‐Gal‐α(1,1)α‐D‐Gal]",LecA / MIC,LecA (PA-IL) [4],97.5 µM
"OC[C@H]1O[C@H](S[C@H]2O[C@H](CO)[C@@H](O)[C@H](O)[C@H]2O)[C@H](O)[C@@H](O)[C@H]1O [compound 30, Thio‐D‐Gal‐α(1,1)α‐D‐Glc]",LecA / MIC,LecA (PA-IL) [4],390 µM
